In patent US6780883B2, “Amide inhibitors of microsomal triglyceride transfer protein” (Warner-Lambert Company, priority 1998, dated 2004) one finds IC50 data, which are given here for 15 compounds.

Test [1] addresses apolipoprotein(a), [apo(a)], apolipoproteinB-100, [apoB-100], coupling reaction that generates Lp(a) (Homo sapiens, UniProt P04114+P08519). As to the kind of experiment: LPABC screen: lipoprotein(a) biochemical coupling assay, Lp(a) content by ELISA. The settings on record: recombinant apo(a) 17-kringle (293 cell media) + HepG2 conditioned media, 67 minutes, 37° C., 0.3 to 50 μM compound; read-out: Lp ABC IC50. How it is done: LPABC Screen The lipoprotein(a), [Lp(a)], biochemical coupling assay (LPABC) is used to characterize inhibitors of the apolipoprotein(a), [apo(a)], apolipoproteinB-100, [apoB-100], coupling reaction that generates Lp(a). Conditioned media from 293 cells (ATCC CRL-1573), permanently transfected with an apo(a) 17-kringle cDNA expression construct (pcDNA-AMP, In Vitrogen, Carlsbad, Calif.) using standard molecular biology techniques, was used as a source of recombinant apo(a) is diluted 1:3 with phosphate buffered saline (PBS) and 90 μL is pipetted into each well of a 96-well plate and placed into a 37° C. incubator for 10 minutes. Twenty microliters of a 0.3 to 50 μM solution of a compound of the present invention in PBS is added to the warmed plate. Ninety microliters of HepG2 (ATCC HB-8065) cell conditioned media diluted 1:3 with PBS is added to the apo(a)/compound mixture and mixed by pipetting up and down 5 times. The reaction is incubated for 67 minutes in a 37° C. incubator. A 100 μL aliquot of the reaction is removed and assayed for its Lp(a) content by an enzyme linked immunosorbent assay (ELISA).
(In general: ELISA stands for enzyme-linked immunosorbent assay.)

Test [2] concerns Lp(a) production in HepG2^K17 cells. Briefly: LPA3 screen: inhibition of Lp(a) production in transfected HepG2 cells, Lp(a) in media by ELISA. The test is classed as cell-based. The note with it: 8 hours, 0.3 to 50 μM compound, Lp(a) normalized for total protein, read-out: Lp A3 IC50. As to the method:
The LPA3 screen is used to identify compounds that inhibit Lp(a) production. This screen employs permanently transfected HepG2 cells (HepG2^K17) that are generated using an apo(a) 17-kringle cDNA expression construct (pcDNA-AMP, In Vitrogen, Carlsbad, Calif.) in accordance with methods that are well-known in molecular biology.
HepG2^K17 cells are seeded in 96-well plates at a density of 75,000 cells per well in 0.25 mL of Dulbecco's Modified Eagle Media (DMEM) containing 10% fetal bovine serum (FBS). Seeded plates are incubated overnight in a 37° C., 5% CO2/95% 02 incubator. The media is removed, replaced with (1) fresh media, or (2) fresh media plus 0.3 to 50 μM of a compound of the present invention in 20 μL of PBS, and the plates returned to the incubator for 8 hours. After the additional 8 hours of incubation, Lp(a) is assayed in the media by ELISA. Cells are digested with 0.5N NaOH overnight and assayed for total protein. Lp(a) values are normalized for total protein content.

By IC50 is commonly meant the midpoint of a concentration-inhibition curve.

Where two headings read alike, the source gives them in different places.

Regarding `CCC[S+]([O-])c1ccccc1C(=O)N(Cc1ccccc1-c1ccccc1)c1ccc(OC)cc1` (centres unmarked) [Example 138, N-Biphenyl-2-ylmethyl-N-(4-methoxy-phenyl)-2-(propane-1-sulfinyl)-benzamide], the results for the half-maximal inhibitory concentration (IC50) in test [1] and in test [2] (Homo sapiens) were above 15 µM and 7 µM, respectively.
In the case of `COc1ccc(N(Cc2ccccc2-c2ccccc2)C(=O)c2ccc3c(c2)OCO3)cc1` [Example 105, Benzo[1,3]dioxole-5-carboxylic acid biphenyl-2-ylmethyl-(4-methoxy-phenyl)-amide], the IC50 in test [1] was above 50 µM; in test [2] (Homo sapiens) it was 13.4 µM.
Take `O=C(c1ccccc1Br)N(Cc1ccccc1-c1ccccc1)c1ccccn1` [Example 111, N-Biphenyl-2-ylmethyl-2-bromo-N-pyridin-2-yl-benzamide]: the IC50 in test [1] is above 50 µM; in test [2] (Homo sapiens) it was 18.7 µM.
On to `COc1ccc(N(Cc2ccc(Cl)c(Cl)c2)C(=O)c2cc(OC)c(OC)c(OC)c2)cn1` [Example 67, N-(3,4-Dichloro-benzyl)-3,4,5-trimethoxy-N-(6-methoxy-pyridin-3-yl)-benzamide], for which the IC50 in test [1] was above 50 µM; in test [2] (Homo sapiens), 54.6 µM.
As for `COc1ccccc1C(=O)N(Cc1cccnc1)Cc1ccccc1-c1ccccc1` [Example 92, N-Biphenyl-2-ylmethyl-2-methoxy-N-pyridin-3-ylmethyl-benzamide], the 50% inhibitory concentration (IC50) was above 50 µM in test [1] and 6.3 µM in test [2] (Homo sapiens).
The matching figures for `COc1cc(C(=O)N(Cc2ccc3ccccc3c2)c2cnc3ccccc3c2)cc(OC)c1OC` [Example 62, 3,4,5-Trimethoxy-N-naphthalen-2-ylmethyl-N-quinolin-3-yl-benzamide]: above 50 µM and 22.2 µM.
On to `CCCCOc1ccc(N(Cc2ccccc2-c2ccccc2)C(=O)CN(CC)CC)cn1` [Example 84, N-Biphenyl-2-ylmethyl-N-(6-butoxy-pyridin-3-yl)-2-diethylamino-acetamide], for which the figures for the IC50 in test [1] and in test [2] (Homo sapiens) were above 50 µM and 43.7 µM, respectively.
Take `CCOc1ccccc1C(=O)N(Cc1cc(C(C)(C)C)cc(C(C)(C)C)c1)c1cccnc1` [Example 74, N-(3,5-Di-tert-butyl-benzyl)-2-ethoxy-N-pyridin-3-yl-benzamide]: the concentration for half-maximal inhibition (IC50) in test [1] is above 50 µM; in test [2] (Homo sapiens), 11.6 µM.
As to `COc1ccc(C(=O)N(Cc2ccccc2-c2ccccc2)c2ccccc2)cc1OC` [Example 49, N-Biphenyl-2-ylmethyl-3,4-dimethoxy-N-phenyl-benzamide], the IC50 in test [1] was above 50 µM; in test [2] (Homo sapiens) it was 14 µM.
On to `CCN(CC)CCCc1ccc(N(Cc2ccc(OC)cc2)C(=O)c2ccccc2)cc1` [Example 54, N-[4-(3-Diethylamino-propyl)-phenyl]-N-(4-methoxy-benzyl)-benzamide], for which the results for the IC50 in test [1] and in test [2] (Homo sapiens) were above 50 µM and 41.6 µM, respectively.
`COc1ccc(N(Cc2ccccc2-c2ccccc2)C(=O)c2cccc3c2OCO3)cn1` [Example 109, Benzo[1,3]dioxole-4-carboxylic acid biphenyl-2-ylmethyl-(6-methoxy-pyridin-3-yl)-amide]: the IC50 was above 50 µM in test [1] and 11.8 µM in test [2] (Homo sapiens).
On to `CC(C)c1ccc(C(=O)N(Cc2ccccc2-c2ccccc2)c2cccnc2)cc1` [Example 72, N-Biphenyl-2-ylmethyl-4-isopropyl-N-pyridin-3-yl-benzamide], for which the values for the IC50 in test [1] and in test [2] (Homo sapiens) were above 50 µM and 37.1 µM, respectively.
On to `COc1ccc(N(Cc2ccccc2-c2ccccc2)C(=O)c2ccc(OC)cc2OC)cc1` [Example 106, N-Biphenyl-2-ylmethyl-2,4-dimethoxy-N-(4-methoxy-phenyl)-benzamide], for which the half-maximal inhibitory concentration (IC50) in test [1] is above 50 µM; in test [2] (Homo sapiens) it was 9.3 µM.
For `CC(C)c1ccc(C(=O)N(Cc2ccc(C(C)(C)C)cc2)c2cccnc2)cc1` [Example 71, N-(4-tert-Butyl-benzyl)-4-isopropyl-N-pyridin-3-yl-benzamide], the results for the half-inhibitory concentration (IC50) in test [1] and in test [2] (Homo sapiens) were above 50 µM and 43 µM, respectively.
As for “N-Biphenyl-2-ylmethyl-N-(3,4-dimethoxy-phenyl)-2-phenylmethanesulfinyl- [Example 143]”, the IC50 in test [2] is 1.6 µM.
